Source: ChEMBL document CHEMBL5537201, “Discovery of Unique Bis-Substituted Aromatic Amide Derivatives as Novel Highly Potent Antibiotics for Combating Methicillin-Resistant Staphylococcus aureus (MRSA)” (J Med Chem, 2024)
In brackets after ≈: the same amount, converted by molar mass. Activity calls are given as the source filed them. The calls are words filed in the database; no cut-off is given here.

Tests used:
Staphylococcus aureus [1] = assay: Antimicrobial activity against methicillin resistant Staphylococcus aureus clinical isolate MRS273 assessed as reduction in bacterial growth incubated for 24 hrs by two-fold broth dilution method; type: functional
Streptomyces albus = assay: Antimicrobial activity against Streptomyces albus SHBC D11158 assessed as reduction in bacterial growth incubated for 24 hrs by two-fold broth dilution method; type: functional
[2] = Selectivity index, ratio of IC50 for African green monkey Vero E6 cells to MIC for Staphylococcus aureus ATCC6538; type: toxicity; conditions: read-out: Selectivity Index
Staphylococcus aureus [3] = assay: Antimicrobial activity against methicillin resistant Staphylococcus aureus clinical isolate MRS70 assessed as reduction in bacterial growth incubated for 24 hrs by two-fold broth dilution method; type: functional
Staphylococcus aureus [4] = assay: Antimicrobial activity against methicillin resistant Staphylococcus aureus clinical isolate MRS23 assessed as reduction in bacterial growth incubated for 24 hrs by two-fold broth dilution method; type: functional
Staphylococcus aureus [5] = assay: Antimicrobial activity against methicillin resistant Staphylococcus aureus clinical isolate MRS1 assessed as reduction in bacterial growth incubated for 24 hrs by two-fold broth dilution method; type: functional
Staphylococcus aureus [6] = assay: Antimicrobial activity against methicillin resistant Staphylococcus aureus clinical isolate MRS84 assessed as reduction in bacterial growth incubated for 24 hrs by two-fold broth dilution method; type: functional
Staphylococcus aureus [7] = assay: Antimicrobial activity against methicillin resistant Staphylococcus aureus clinical isolate MRS108 assessed as reduction in bacterial growth incubated for 24 hrs by two-fold broth dilution method; type: functional
Staphylococcus aureus [8] = assay: Antimicrobial activity against Staphylococcus aureus N315 assessed as reduction in bacterial growth incubated for 24 hrs by two-fold broth dilution method; type: functional
Staphylococcus aureus [9] = assay: Antimicrobial activity against Staphylococcus aureus ATCC6538 assessed as reduction in bacterial growth incubated for 24 hrs by two-fold broth dilution method; type: functional
Staphylococcus aureus [10] = assay: Induction of drug resistance in Staphylococcus aureus ATCC6538 assessed as change in MIC measured after 10 passages; type: functional
[11] = Cytotoxicity against HEK293 cells assessed as reduction in cell viability measured after 24 hrs by CCK-8 method; type: toxicity, cell-based; conditions: human
[12] = Cytotoxicity against African green monkey Vero E6 cells assessed as reduction in cell viability measured after 24 hrs by CCK-8 method; type: toxicity, cell-based, Chlorocebus sabaeus, Vero C1008
Staphylococcus aureus [13] = assay: Antimicrobial activity against methicillin resistant Staphylococcus aureus clinical isolate MRS153 assessed as reduction in bacterial growth incubated for 24 hrs by two-fold broth dilution method; type: functional
[14] = Cytotoxicity against human HaCaT cells assessed as reduction in cell viability measured after 24 hrs by CCK-8 method; type: toxicity, cell-based
Staphylococcus aureus [15] = assay: Antimicrobial activity against methicillin resistant Staphylococcus aureus clinical isolate MRS152 assessed as reduction in bacterial growth incubated for 24 hrs by two-fold broth dilution method; type: functional
Staphylococcus aureus [16] = assay: Antimicrobial activity against methicillin resistant Staphylococcus aureus clinical isolate MRS97 assessed as reduction in bacterial growth incubated for 24 hrs by two-fold broth dilution method; type: functional
A549 = assay: Cytotoxicity against human A549 cells assessed as reduction in cell viability measured after 24 hrs by CCK-8 method; type: functional, cell-based; conditions: A549, 24 h
Staphylococcus aureus [17] = assay: Antimicrobial activity against methicillin resistant Staphylococcus aureus clinical isolate MRS121 assessed as reduction in bacterial growth incubated for 24 hrs by two-fold broth dilution method; type: functional
HeLa = assay: Cytotoxicity against human HeLa cells assessed as reduction in cell viability measured after 24 hrs by CCK-8 method; type: functional, cell-based
Staphylococcus hominis = assay: Antimicrobial activity against methicillin-resistant Staphylococcus hominis assessed as reduction in bacterial growth incubated for 24 hrs by two-fold broth dilution method; type: functional
Staphylococcus aureus [18] = assay: Antimicrobial activity against methicillin resistant Staphylococcus aureus clinical isolate MRS207 assessed as reduction in bacterial growth incubated for 24 hrs by two-fold broth dilution method; type: functional
[19] = Selectivity index, ratio of HC50 for rabbit Red blood cell to MIC for Staphylococcus aureus ATCC6538; type: toxicity; conditions: red blood cells (erythrocytes), read-out: Selectivity Index
[20] = Hemolytic activity in rabbit Red blood cell assessed as hemolysis incubated for 1 hr by two-fold microdilution method; type: toxicity, cell-based, Oryctolagus cuniculus, Erythrocyte; conditions: red blood cells (erythrocytes)
Staphylococcus aureus [21] = assay: Antimicrobial activity against methicillin resistant Staphylococcus aureus clinical isolate MRS200 assessed as reduction in bacterial growth incubated for 24 hrs by two-fold broth dilution method; type: functional
Staphylococcus aureus [22] = assay: Bactericidal activity against Staphylococcus aureus ATCC6538 assessed as reduction in survival rate at 5 to 10 times MIC measured after 30 to 120 mins by colony counting method relative to control; type: functional; conditions: time 30-120 min
Staphylococcus aureus [23] = assay: Bactericidal activity against methicillin-resistant Staphylococcus aureus clinical isolate MRS97 at 5 ug/ml measured upto 150 mins; type: functional, organism-based; conditions: dose 5.0 µg/ml
Staphylococcus aureus [24] = assay: Bactericidal activity against methicillin-resistant Staphylococcus aureus clinical isolate MRS1 at 5 ug/ml measured upto 150 mins; type: functional, organism-based; conditions: dose 5.0 µg/ml
Staphylococcus aureus [25] = assay: Bactericidal activity against methicillin-resistant Staphylococcus aureus clinical isolate MRS153 at 5 ug/ml measured upto 150 mins; type: functional, organism-based; conditions: dose 5.0 µg/ml

SMILES	MIC (Staphylococcus aureus [1]) [µg/mL]	MIC (Streptomyces albus) [µg/mL]	selectivity ratio [2]	MIC (Staphylococcus aureus [3]) [µg/mL]	MIC (Staphylococcus aureus [4]) [µg/mL]	MIC (Staphylococcus aureus [5]) [µg/mL]	MIC (Staphylococcus aureus [6]) [µg/mL]	MIC (Staphylococcus aureus [7]) [µg/mL]	MIC (Staphylococcus aureus [8]) [µg/mL]	MIC (Staphylococcus aureus [9]) [µg/mL]	Activity (Staphylococcus aureus [10])	IC50 at 24 h [11] [µg/mL]	IC50 at 24 h [12] [µg/mL]	MIC (Staphylococcus aureus [13]) [µg/mL]	MIC (Staphylococcus aureus [15]) [µg/mL]	MIC (Staphylococcus aureus [16]) [µg/mL]	MIC (Staphylococcus aureus [17]) [µg/mL]	MIC (Staphylococcus hominis) [µg/mL]	MIC (Staphylococcus aureus [18]) [µg/mL]	MIC (Staphylococcus aureus [21]) [µg/mL]	other results
O=C(CCC(F)(F)F)N(Cc1cc2ccccc2s1)c1cc(-c2ccccc2)ccc1O	3 (≈ 6.59 µM)	4 (≈ 8.78 µM)	22	3 (≈ 6.59 µM)	3 (≈ 6.59 µM)	3 (≈ 6.59 µM)	2 (≈ 4.39 µM)	2 (≈ 4.39 µM)	2 (≈ 4.39 µM)	1 (≈ 2.2 µM)	inactive	7.8 (≈ 17.1 µM)	22.9 (≈ 50.3 µM)	3 (≈ 6.59 µM)	2 (≈ 4.39 µM)	2 (≈ 4.39 µM)	3 (≈ 6.59 µM)	6 (≈ 13.2 µM)	2 (≈ 4.39 µM)	3 (≈ 6.59 µM)	IC50 at 24 h [14]: > 25 µg/mL; IC50 (A549): 10.7 µg/mL (≈ 23.5 µM); IC50 (HeLa): > 25 µg/mL; selectivity ratio [19]: > 1000; HC50 at 1 h [20]: 1770 µg/mL; Survival (Staphylococcus aureus [22]): <1%
O=C(CCC(F)(F)F)N(Cc1cc2ccccc2s1)c1cc(-c2ccc(F)cc2)ccc1O	2 (≈ 4.22 µM)	16 (≈ 33.8 µM)	18	6 (≈ 12.7 µM)	2 (≈ 4.22 µM)	6 (≈ 12.7 µM)	2 (≈ 4.22 µM)	2 (≈ 4.22 µM)	1 (≈ 2.11 µM)	1 (≈ 2.11 µM)	inactive	20.7 (≈ 43.8 µM)	17.3 (≈ 36.6 µM)	2 (≈ 4.22 µM)	6 (≈ 12.7 µM)	2 (≈ 4.22 µM)	2 (≈ 4.22 µM)	8 (≈ 16.9 µM)	3 (≈ 6.34 µM)	6 (≈ 12.7 µM)	IC50 at 24 h [14]: 14.7 µg/mL (≈ 31 µM); IC50 (A549): 10 µg/mL (≈ 21.1 µM); IC50 (HeLa): 16.7 µg/mL (≈ 35.3 µM); selectivity ratio [19]: > 1000; HC50 at 1 h [20]: 2150 µg/mL; Survival (Staphylococcus aureus [22]): <1%
COc1cccc(OC)c1C(=O)N[C@@H]1C(=O)N2[C@@H]1SC(C)(C)[C@@H]2C(=O)O [METHICILLIN]	16 (≈ 42.1 µM)	4 (≈ 10.5 µM)		16 (≈ 42.1 µM)	8 (≈ 21 µM)	16 (≈ 42.1 µM)	16 (≈ 42.1 µM)	16 (≈ 42.1 µM)		1 (≈ 2.63 µM)				> 16	8 (≈ 21 µM)	8 (≈ 21 µM)	8 (≈ 21 µM)	2 (≈ 5.26 µM)	16 (≈ 42.1 µM)	> 16	Activity (Staphylococcus aureus [23]): inactive; Activity (Staphylococcus aureus [24]): inactive; Activity (Staphylococcus aureus [25]): inactive
